SMILES strings stand for the structures. A value given as a limit tells only on which side of the number the result lay.

For test [1], the target named is T1, melanocortin-4 receptor (Homo sapiens, UniProt P32245).
T1 construct: expressed in transfected cells; host or cells: HEK293 cells (membrane preparations)
Nature of the test: Functional assay (cAMP fluorescence polarization, membrane based, agonistic activity). The test is classed as biochemical. Conditions: 2 h; read-out: % activation functional assay. (In general: Polarisation of emitted light reports the rotation of a fluorescent probe.)

The target of test [2] is T1, melanocortin-4 receptor. Briefly: Membrane binding assay (fluorescence polarization, competition with fluorescence labeled NDP-alpha-MSH). Conditions: read-out: hMC-4R binding assay IC50/μM.

T1 sequence (P32245 whole entry): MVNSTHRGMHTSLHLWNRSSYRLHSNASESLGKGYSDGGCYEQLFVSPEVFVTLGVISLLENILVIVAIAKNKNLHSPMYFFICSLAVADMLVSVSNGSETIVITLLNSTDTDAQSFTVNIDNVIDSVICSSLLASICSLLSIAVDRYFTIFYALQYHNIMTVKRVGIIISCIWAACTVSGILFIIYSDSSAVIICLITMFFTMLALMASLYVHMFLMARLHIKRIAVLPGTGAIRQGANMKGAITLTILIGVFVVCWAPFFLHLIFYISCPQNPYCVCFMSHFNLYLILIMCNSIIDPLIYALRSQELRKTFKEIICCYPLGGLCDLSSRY

Turning to `CC(=O)OCCn1cc(-c2nc3ccc(C(=O)N(CCC4CC4)CCC4CC4)cn3c2CCCN2CCCC2)ccc1=O` [Example 105], in test [1], the Emax is -24%. The IC50 in test [2] was in the range of 0.1 to 1 µM.

On to `CC(=O)OCCOc1ccc(-c2nc3ccc(C(=O)N(CCC4CC4)CCC4CC4)cn3c2CCCN2CCCC2)cn1` [Example 106], for which the Emax in test [1] turned out to be 0%. Also, the IC50 in test [2] fell in the range of 0.1 to 1 µM.

On to `O=C(c1ccc2nc(-c3ccc(=O)n(CCO)c3)c(CCCN3CCCC3)n2c1)N(CCC1CC1)CCC1CC1` [Example 107], for which the Emax in test [1] was -17%. Further, in test [2], the IC50 fell in the range of 0.1 to 1 µM.

Consider `O=C(c1ccc2nc(-c3ccc(OCCO)nc3)c(CCCN3CCCC3)n2c1)N(CCC1CC1)CCC1CC1` [Example 108], for which, in test [1], the Emax was -19%. In addition, in test [2], the IC50 fell in the range of 0.1 to 1 µM.

As to `CC1CCCN1CCCc1c(-c2ccc(=O)[nH]c2)nc2ccc(C(=O)N(CCC3CC3)CCC3CC3)cn12` (centres unmarked) [Example 109], the Emax in test [1] was -23%. Besides, the IC50 in test [2] is less than 0.1 µM.

As for `CC(=O)OCCn1cc(-c2nc3ccc(C(=O)N(CCC4CC4)CCC4CC4)cn3c2CCCN2CCCC2C)ccc1=O` (centres unmarked) [Example 110], the Emax in test [1] is -23%. Besides, in test [2], the IC50 lay in the range of 0.1 to 1 µM.

For the compound `CC1CCCN1CCCc1c(-c2ccc(=O)n(CCO)c2)nc2ccc(C(=O)N(CCC3CC3)CCC3CC3)cn12` (centres unmarked) [Example 111], in test [1], the Emax is -25%. The IC50 in test [2] lay within 0.1 to 1 µM.

With `CC1CCCN1CCCc1c(-c2ccc(OCCO)nc2)nc2ccc(C(=O)N(CCC3CC3)CCC3CC3)cn12` (centres unmarked) [Example 112], the Emax in test [1] is -9%. Besides, in test [2], the IC50 was less than 0.1 µM.

For `CC(C)CCN(CCC(C)C)C(=O)c1ccc2nc(-c3ccc(C#N)cc3)c(CN3CCC(N(C)C)CC3)n2c1` [Example 113], in test [1], the Emax was 0%. The IC50 in test [2] was 0.1 to 1 µM.

For the compound `COc1cccc(-c2nc3ccc(C(=O)N(CCC(C)C)CCC(C)C)cn3c2CN2CCC(N(C)C)CC2)c1` [Example 114], the Emax in test [1] was 0%. The IC50 in test [2] fell in the range of 0.1 to 1 µM.

In the case of `COc1cccc(-c2nc3ccc(C(=O)N(CCC(C)C)CCC(C)C)cn3c2CN2CCC(N)CC2)c1` [Example 116], in test [1], the Emax is 0%. The IC50 in test [2] lay in the range of 0.1 to 1 µM.

Turning to `CC(C)CCN(CCC(C)C)C(=O)c1ccc2nc(-c3ccc(Cl)cc3)c(CN3CCC(N)CC3)n2c1` [Example 117], the Emax in test [1] turned out to be 0%. Also, in test [2], the IC50 lay within 0.1 to 1 µM.

In the case of `CC(C)CCN(CCC(C)C)C(=O)c1ccc2nc(-c3ccc(F)cc3)c(CN3CCC(N)CC3)n2c1` [Example 118], the Emax in test [1] turned out to be 0%. The IC50 in test [2] lay in the range of 0.1 to 1 µM.

For `CC(C)CCN(CCC(C)C)C(=O)c1ccc2nc(-c3cccc(Cl)c3)c(CN3CCC(N)CC3)n2c1` [Example 120], the Emax in test [1] worked out at 0%. The IC50 in test [2] is greater than 1 µM.

Turning to `COc1cccc(-c2nc3ccc(C(=O)N(CCC(C)C)CCC(C)C)cn3c2CN2CCNCC2)c1` [Example 121], in test [1], the Emax was 0%. Further, in test [2], the IC50 was greater than 1 µM.

In the case of `CC(C)CCN(CCC(C)C)C(=O)c1ccc2nc(-c3cccc(C#N)c3)c(CN3CCC(N)CC3)n2c1` [Example 122], in test [1], the Emax turned out to be 0%. Besides, in test [2], the IC50 lay within 0.1 to 1 µM.

On to `COc1cccc(-c2nc3ccc(C(=O)N(CCC(C)C)CCC(C)C)cn3c2CN2CCC(N)C2)c1` (centres unmarked) [Example 123], for which the Emax in test [1] was 0%. Further, the IC50 in test [2] was greater than 1 µM.

In the case of `CC(C)CCN(CCC(C)C)C(=O)c1ccc2nc(-c3ccc(-c4ccccn4)s3)c(CN3CCC(N)CC3)n2c1` [Example 124], the Emax in test [1] turned out to be 0%. Also, the IC50 in test [2] lay within 0.1 to 1 µM.

Take `CC(C)CCN(CCC(C)C)C(=O)c1ccc2nc(-c3cccs3)c(CN3CCC(N)CC3)n2c1` [Example 125]: the Emax in test [1] turned out to be 0%. Besides, the IC50 in test [2] was 0.1 to 1 µM.

As for `CC(C)CCN(CCC(C)C)C(=O)c1ccc2nc(-c3ccc(Cl)cc3)c(CN3CCCC(N)C3)n2c1` (centres unmarked) [Example 126], in test [1], the Emax was found to be 0%. Also, the IC50 in test [2] is greater than 1 µM.

As for `CC(C)CCN(CCC(C)C)C(=O)c1ccc2nc(-c3ccc(Cl)cc3)c(CN3C[C@H]4CNC[C@H]4C3)n2c1` [Example 127], in test [1], the Emax stood at 0%. In addition, the IC50 in test [2] is 0.1 to 1 µM.

Regarding `CC(C)CCN(CCC(C)C)C(=O)c1ccc2nc(-c3ccc(Cl)cc3)c(CN3CCN4CCCC4C3)n2c1` (centres unmarked) [Example 128], the Emax in test [1] amounted to 0%. For the same compound, in test [2], the IC50 was greater than 1 µM.

As for `COc1ccc(-c2nc3ccc(C(=O)N(CCC(C)C)CCC(C)C)cn3c2CN2CCC(N(C)C)CC2)c(OC)c1` [Example 129], the Emax in test [1] was 0%. Besides, in test [2], the IC50 is greater than 1 µM.

As to `COc1ccc(OC)c(-c2nc3ccc(C(=O)N(CCC(C)C)CCC(C)C)cn3c2CN2CCC(N(C)C)CC2)c1` [Example 130], the Emax in test [1] was 0%. In addition, the IC50 in test [2] is greater than 1 µM.

`CC(C)CCN(CCC(C)C)C(=O)c1ccc2nc(-c3ccc(Cl)c(Cl)c3)c(CN3CCC(N(C)C)CC3)n2c1` [Example 131]: the Emax in test [1] is 0%. Also, the IC50 in test [2] is less than 0.1 µM.

With `CC(C)CCN(CCC(C)C)C(=O)c1ccc2nc(-c3ccccc3)c(CN3CCC(N)CC3)n2c1` [Example 133], the Emax in test [1] is 0%. Also, the IC50 in test [2] lay in the range of 0.1 to 1 µM.

For `CC(C)CCN(CCC(C)C)C(=O)c1ccc2nc(-c3ccc(C(F)(F)F)cc3)c(CN3CCC(N)CC3)n2c1` [Example 134], in test [1], the Emax was found to be 0%. For the same compound, the IC50 in test [2] was in the range of 0.1 to 1 µM.

Consider `CC(C)CCN(CCC(C)C)C(=O)c1ccc2nc(-c3nccs3)c(CN3CCC(N)CC3)n2c1` [Example 135], for which the Emax in test [1] stood at 0%. Moreover, the IC50 in test [2] was greater than 1 µM.

Turning to `CC(C)CCN(CCC(C)C)C(=O)c1ccc2nc(-c3ccc4c(c3)CCC(=O)N4)c(CN3CCC(N)CC3)n2c1` [Example 136], the Emax in test [1] turned out to be 0%. In test [2], the IC50 lay in the range of 0.1 to 1 µM.

As for `CC(C)CCN(CCC(C)C)C(=O)c1ccc2nc(-c3ccc4c(c3)NC(=O)CO4)c(CN3CCC(N)CC3)n2c1` [Example 137], in test [1], the Emax was 0%. In addition, the IC50 in test [2] was 0.1 to 1 µM.

Consider `CC(C)CCN(CCC(C)C)C(=O)c1ccc2nc(-c3ccc(C#N)cc3)c(CN3CCC(N)CC3)n2c1` [Example 138], for which, in test [1], the Emax came out at 0%. For the same compound, the IC50 in test [2] is 0.1 to 1 µM.

In the case of `COc1ccc(-c2nc3ccc(C(=O)N(CCC(C)C)CCC(C)C)cn3c2CN2CCC(N)CC2)cc1OC` [Example 139], the Emax in test [1] was determined as 0%. The IC50 in test [2] lay in the range of 0.1 to 1 µM.

On to `COc1ccc(-c2nc3ccc(C(=O)N(CCC(C)C)CCC(C)C)cn3c2CN2CCC(N)CC2)cc1` [Example 140], for which the Emax in test [1] is 0%. Also, the IC50 in test [2] lay within 0.1 to 1 µM.

For the compound `CCCN(CC1CC1)C(=O)c1ccc2nc(-c3ccc(C#N)cc3)c(CCCN3CCCC3)n2c1` [Example 141], in test [1], the Emax stood at 0%. In addition, the IC50 in test [2] was in the range of 0.1 to 1 µM.

As to `CCCCN(CCCC)C(=O)c1ccc2nc(-c3ccc(C#N)cc3)c(CCCN3CCCC3)n2c1` [Example 142], the Emax in test [1] worked out at 0%. In addition, in test [2], the IC50 was less than 0.1 µM.

As for `CC(C)CCN(CCC1CC1)C(=O)c1ccc2nc(-c3ccc(C#N)cc3)c(CCCN3CCCC3)n2c1` [Example 143], the Emax in test [1] was 0%. In addition, the IC50 in test [2] is less than 0.1 µM.

As to `CC(C)CN(CC(C)C)C(=O)c1ccc2nc(-c3ccc(C#N)cc3)c(CCCN3CCCC3)n2c1` [Example 144], the Emax in test [1] was 0%. Besides, the IC50 in test [2] is 0.1 to 1 µM.

In the case of `N#Cc1ccc(-c2nc3ccc(C(=O)N(CCC4CC4)CCC4CC4)cn3c2CCCN2CCCC2)cc1` [Example 145], the Emax in test [1] stood at 0%. The IC50 in test [2] was less than 0.1 µM.

For `CC(C)CC1CCCN1C(=O)c1ccc2nc(-c3ccc(C#N)cc3)c(CCCN3CCCC3)n2c1` (centres unmarked) [Example 146], in test [1], the Emax was determined as 0%. The IC50 in test [2] was 0.1 to 1 µM.

On to `CCCC1CCCN1C(=O)c1ccc2nc(-c3ccc(C#N)cc3)c(CCCN3CCCC3)n2c1` (centres unmarked) [Example 147], for which the Emax in test [1] was 0%. Further, the IC50 in test [2] is greater than 1 µM.

For `O=C(c1ccc2nc(-c3ccc(=O)[nH]c3)c(CCCN3CCCC3)n2c1)N(CCC1CC1)CCC1CC1` [Example 148], the Emax in test [1] is -12%. For the same compound, the IC50 in test [2] was 0.1 to 1 µM.

As to `CC(C)CCN(CCC(C)CO)C(=O)c1ccc2nc(-c3ccc(=O)[nH]c3)c(CCCN3CCCC3)n2c1` (centres unmarked) [Example 149], the Emax in test [1] stood at 0%. Also, the IC50 in test [2] lay in the range of 0.1 to 1 µM.

In the case of `CC(C)CCN(CC(C)C)C(=O)c1ccc2nc(-c3ccc(C#N)cc3)c(CN3CCC(N)CC3)n2c1` [Example 150], in test [1], the Emax stood at 0%. Moreover, the IC50 in test [2] fell in the range of 0.1 to 1 µM.

The record behind these values is patent US8236818B2, “Substituted imidazopyridine derivatives as melanocortin-4 receptor antagonists” (Santhera Pharmaceuticals (Schweiz) AG, priority 2007, dated 2012).
